#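 Growth conditions: 96-well plates. Treatment: test compound, 48 hours, 5 concentrations. Analysis: linear interpolation between bracketing concentrations; unreached endpoints set to highest concentration. GI50 marks 50% less growth. Definition used: TGI = concentration required for complete inhibition of growth.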
# Assays:
# Experiment in all cases: DTP human tumour cell line panel, 48 h
# 786-0 renal = test system: 786-0 renal
# A498 renal = test system: A498 renal
# A549 NSCLC = test system: A549 NSCLC
# ACHN renal = test system: ACHN renal
# BT-549 breast = test system: BT-549 breast
# CCRF-CEM leukemia = test system: CCRF-CEM leukemia
# COLO 205 colon = test system: COLO 205 colon
# DU-145 prostate = test system: DU-145 prostate
# EKVX NSCLC = test system: EKVX NSCLC
# HCC-2998 colon = test system: HCC-2998 colon
# HCT-15 colon = test system: HCT-15 colon
# HL-60(TB) leukemia = test system: HL-60(TB) leukemia
# HOP-62 NSCLC = test system: HOP-62 NSCLC
# HOP-92 NSCLC = test system: HOP-92 NSCLC
# HS 578T breast = test system: HS 578T breast
# HT29 colon = test system: HT29 colon
# IGROV1 ovarian = test system: IGROV1 ovarian
# K-562 leukemia = test system: K-562 leukemia
# KM12 colon = test system: KM12 colon
# MALME-3M melanoma = test system: MALME-3M melanoma
# MCF7 breast = test system: MCF7 breast
# MDA-MB-231 breast = test system: MDA-MB-231 breast
# MOLT-4 leukemia = test system: MOLT-4 leukemia
# NCI-H226 lung = test system: NCI-H226 lung
# NCI-H23 lung = test system: NCI-H23 lung
# NCI-H460 lung = test system: NCI-H460 lung
# NCI-H522 lung = test system: NCI-H522 lung
# NCI/ADR-RES ovarian = test system: NCI/ADR-RES ovarian
# OVCAR-3 ovarian = test system: OVCAR-3 ovarian
# OVCAR-4 ovarian = test system: OVCAR-4 ovarian
# OVCAR-5 ovarian = test system: OVCAR-5 ovarian
# OVCAR-8 ovarian = test system: OVCAR-8 ovarian
# PC-3 prostate = test system: PC-3 prostate
# RPMI-8226 leukemia = test system: RPMI-8226 leukemia
# RXF 393 renal = test system: RXF 393 renal
# SF-268 CNS = test system: SF-268 CNS
# SF-295 CNS = test system: SF-295 CNS
# SF-539 CNS = test system: SF-539 CNS
# SK-MEL-2 melanoma = test system: SK-MEL-2 melanoma
# SK-MEL-28 melanoma = test system: SK-MEL-28 melanoma
# SK-MEL-5 melanoma = test system: SK-MEL-5 melanoma
# SK-OV-3 ovarian = test system: SK-OV-3 ovarian
# SN12C renal = test system: SN12C renal
# SNB-19 CNS = test system: SNB-19 CNS
# SNB-75 CNS = test system: SNB-75 CNS
# SR leukemia = test system: SR leukemia
# SW-620 colon = test system: SW-620 colon
# T-47D breast = test system: T-47D breast
# TK-10 renal = test system: TK-10 renal
# U251 CNS = test system: U251 CNS
# UACC-257 melanoma = test system: UACC-257 melanoma
# UACC-62 melanoma = test system: UACC-62 melanoma
# UO-31 renal = test system: UO-31 renal
smiles,measurement,setting,value
C=CCn1c(SCC(=O)Nc2ccc(C(=O)/C=C/c3cc(OC)c(OC)c(OC)c3)cc2)nnc1-c1ccc(Cl)cc1,GI50,786-0 renal,2.16 µM
same,TGI,786-0 renal,5.59 µM
same,GI50,A498 renal,2.47 µM
same,TGI,A498 renal,10.6 µM
same,GI50,A549 NSCLC,3.61 µM
same,TGI,A549 NSCLC,17.3 µM
same,GI50,ACHN renal,3.67 µM
same,TGI,ACHN renal,22 µM
same,GI50,BT-549 breast,2.4 µM
same,TGI,BT-549 breast,7.79 µM
same,GI50,CCRF-CEM leukemia,2.38 µM
same,TGI,CCRF-CEM leukemia,13.3 µM
same,GI50,COLO 205 colon,4.92 µM
same,TGI,COLO 205 colon,67.3 µM
same,GI50,DU-145 prostate,3.73 µM
same,TGI,DU-145 prostate,40.9 µM
same,GI50,EKVX NSCLC,2.92 µM
same,TGI,EKVX NSCLC,15.5 µM
same,GI50,HCC-2998 colon,2.36 µM
same,TGI,HCC-2998 colon,5.67 µM
same,GI50,HCT-15 colon,2.68 µM
same,TGI,HCT-15 colon,18.8 µM
same,GI50,HL-60(TB) leukemia,2.65 µM
same,TGI,HL-60(TB) leukemia,11.3 µM
same,GI50,HOP-62 NSCLC,3.76 µM
same,TGI,HOP-62 NSCLC,23.8 µM
same,GI50,HOP-92 NSCLC,2.47 µM
same,TGI,HOP-92 NSCLC,11.8 µM
same,GI50,HS 578T breast,5.81 µM
same,TGI,HS 578T breast,> 100 µM
same,GI50,HT29 colon,2.33 µM
same,TGI,HT29 colon,5.69 µM
same,GI50,IGROV1 ovarian,2.76 µM
same,TGI,IGROV1 ovarian,13 µM
same,GI50,K-562 leukemia,1.7 µM
same,TGI,K-562 leukemia,10.5 µM
same,GI50,KM12 colon,1.97 µM
same,TGI,KM12 colon,5.23 µM
same,GI50,MALME-3M melanoma,6.69 µM
same,TGI,MALME-3M melanoma,61.5 µM
same,GI50,MCF7 breast,0.38 µM
same,TGI,MCF7 breast,11.2 µM
same,GI50,MDA-MB-231 breast,3.08 µM
same,TGI,MDA-MB-231 breast,> 100 µM
same,GI50,MOLT-4 leukemia,2.66 µM
same,TGI,MOLT-4 leukemia,11.4 µM
same,GI50,NCI-H226 lung,1.94 µM
same,TGI,NCI-H226 lung,7.42 µM
same,GI50,NCI-H23 lung,2.7 µM
same,TGI,NCI-H23 lung,10.5 µM
same,GI50,NCI-H460 lung,3.41 µM
same,TGI,NCI-H460 lung,13.5 µM
same,GI50,NCI-H522 lung,3.25 µM
same,TGI,NCI-H522 lung,17.4 µM
same,GI50,NCI/ADR-RES ovarian,4.74 µM
same,TGI,NCI/ADR-RES ovarian,> 100 µM
same,GI50,OVCAR-3 ovarian,2.41 µM
same,TGI,OVCAR-3 ovarian,5.93 µM
same,GI50,OVCAR-4 ovarian,3.1 µM
same,TGI,OVCAR-4 ovarian,21 µM
same,GI50,OVCAR-5 ovarian,4.75 µM
same,TGI,OVCAR-5 ovarian,67.7 µM
same,GI50,OVCAR-8 ovarian,2.79 µM
same,TGI,OVCAR-8 ovarian,15 µM
same,GI50,PC-3 prostate,3.2 µM
same,TGI,PC-3 prostate,26.4 µM
same,GI50,RPMI-8226 leukemia,0.253 µM
same,TGI,RPMI-8226 leukemia,1.03 µM
same,GI50,RXF 393 renal,1.47 µM
same,TGI,RXF 393 renal,3.37 µM
same,GI50,SF-268 CNS,4.32 µM
same,TGI,SF-268 CNS,> 100 µM
same,GI50,SF-295 CNS,4.49 µM
same,TGI,SF-295 CNS,48.8 µM
same,GI50,SF-539 CNS,2.96 µM
same,TGI,SF-539 CNS,9.83 µM
same,GI50,SK-MEL-2 melanoma,4.52 µM
same,TGI,SK-MEL-2 melanoma,36.6 µM
same,GI50,SK-MEL-28 melanoma,4.23 µM
same,TGI,SK-MEL-28 melanoma,54.6 µM
same,GI50,SK-MEL-5 melanoma,2.53 µM
same,TGI,SK-MEL-5 melanoma,14.3 µM
same,GI50,SK-OV-3 ovarian,6.01 µM
same,TGI,SK-OV-3 ovarian,58.3 µM
same,GI50,SN12C renal,3.43 µM
same,TGI,SN12C renal,> 100 µM
same,GI50,SNB-19 CNS,3.64 µM
same,TGI,SNB-19 CNS,> 100 µM
same,GI50,SNB-75 CNS,1.79 µM
same,TGI,SNB-75 CNS,12.8 µM
same,GI50,SR leukemia,1.52 µM
same,TGI,SR leukemia,7.45 µM
same,GI50,SW-620 colon,3 µM
same,TGI,SW-620 colon,> 100 µM
same,GI50,T-47D breast,2.24 µM
same,TGI,T-47D breast,30.6 µM
same,GI50,TK-10 renal,7.87 µM
same,TGI,TK-10 renal,61.3 µM
same,GI50,U251 CNS,1.73 µM
same,TGI,U251 CNS,4.38 µM
same,GI50,UACC-257 melanoma,6.38 µM
same,TGI,UACC-257 melanoma,59.6 µM
same,GI50,UACC-62 melanoma,2.94 µM
same,TGI,UACC-62 melanoma,25 µM
same,GI50,UO-31 renal,1.98 µM
same,TGI,UO-31 renal,8.34 µM

# — PubChem BioAssay (NCI)
